From US20240148821A1, “PHARMACEUTICAL USE OF CYCLIC PEPTIDE COMPOUND” (CHUGAI SEIYAKU KABUSHIKI KAISHA, priority 2021, published 2024)
Numbered stars: 1 amine (or outer) side, 2 acyl side, 3 side chain; on linkers, the order of the positions; unused ones are H or OH. Bridge positions count the residues as written; N and C are the ends. Square brackets hold non-standard residues; d marks the D form. Peptide text beside a SMILES is read from it. * marks the point of attachment. hPhe(3-Cl-4-CF3) = N[C@@H](CCc1ccc(C(F)(F)F)c(Cl)c1)C(=O)O; NMePhe(4-CF3) = CN[C@@H](Cc1ccc(C(F)(F)F)cc1)C(=O)O; hPhe(4-CF3) = N[C@@H](CCc1ccc(C(F)(F)F)cc1)C(=O)O; X37 = CC(C)(C)NC(=O)COC[C@H](CC(=O)[*:1])N[*:2]; NMePhe(4-Me) = CN[C@@H](Cc1ccc(C)cc1)C(=O)O; NMeGly(cPent) = CN[C@H](C(=O)O)C1CCCC1; NMeCha = CN[C@@H](CC1CCCCC1)C(=O)O; NMeL = CN[C@@H](CC(C)C)C(=O)O; NMeNle = CCCC[C@H](NC)C(=O)O; NMeV = CN[C@H](C(=O)O)C(C)C; d(β3hA) = C[C@@H](N)CC(=O)O; NMeS = CN[C@@H](CO)C(=O)O; NMeA = CN[C@@H](C)C(=O)O; dNMeA = CN[C@H](C)C(=O)O; Ac5c = NC1(C(=O)O)CCCC1; Aze = O=C(O)[C@@H]1CCN1; CH2CMe2OH = CC(C)(O)C*; NBuGly = CCCCNCC(=O)O; Aib = CC(C)(N)C(=O)O; Isopentyl = CC(C)CC*; NEtG = CCNCC(=O)O; Sar = CNCC(=O)O

Molecular target: protein-protein interaction between Kras and SOS1 (biotin-tagged human Kras loaded with GDP, His-tagged human SOS1) (Homo sapiens (Human), UniProt P01116, G12D)
Experiment: Protein-protein interaction inhibition between Kras and SOS1 (KrasG12D-SOS PPI) using AlphaScreen;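 note: kras produced in E. coli, Ni-coupled donor beads and streptavidin acceptor beads, excitation 680 nm with emission detected at 520–620 nm via singlet oxygen transfer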
Format: biochemical
Settings: AlphaScreen; biotin-tagged human Kras loaded with GDP, His-tagged human SOS1; read-out: KRAS G12D-SOS PPI IC50

| SMILES | IC50 [µM] |
| --- | --- |
| CC[C@H](C)[C@@H]1NC(=O)[C@H](CC(C)C)N(C)C(=O)C[C@@H](C)NC(=O)[C@H](C2CCCC2)N(C)C(=O)C2(CCCC2)NC(=O)[C@@H]2CCCN2C(=O)[C@H](CCc2ccc(C(F)(F)F)c(Cl)c2)NC(=O)[C@@H](C)N(C)C(=O)[C@H](Cc2ccc(C)cc2)N(C)C(=O)[C@@H]2CCN2C(=O)[C@H](C)N(C)C1=O [Compound 1504] (cyclo([Ac5c][NMeGly(cPent)][d(β3hA)][NMeL]I[NMeA][Aze][NMePhe(4-Me)][dNMeA][hPhe(3-Cl-4-CF3)]P)) | 0.057 |
| CCCCN1CC(=O)N(C)CC(=O)N(C)[C@@H](COCCC(C)C)C(=O)N(C)CC(=O)N[C@@H](CCc2ccc(C(F)(F)F)c(Cl)c2)C(=O)N(C)[C@@H](COCC(C)(C)O)C(=O)NC(C)(C)C(=O)N(C)[C@@H](C(C)C)C(=O)N[C@H](C)CC(=O)N(C)[C@@H](CC(C)C)C(=O)N[C@@H]([C@@H](C)CC)C1=O [Compound 1505] (cyclo([Aib][NMeV][d(β3hA)][NMeL]I[NBuGly][Sar][NMeS](Isopentyl)[Sar][hPhe(3-Cl-4-CF3)][NMeS](CH2CMe2OH))) | 0.22 |
| CC[C@H](C)[C@@H]1NC(=O)[C@H](C)N(C)C(=O)C[C@@H](C)NC(=O)[C@H](C2CCCC2)N(C)C(=O)C2(CCCC2)NC(=O)[C@@H]2CCCN2C(=O)[C@H](CCc2ccc(C(F)(F)F)c(Cl)c2)NC(=O)CN(C)C(=O)[C@H](Cc2ccc(C(F)(F)F)cc2)N(C)C(=O)[C@@H]2CCN2C(=O)[C@H](C)N(C)C1=O [Compound 1512] (cyclo([Ac5c][NMeGly(cPent)][d(β3hA)][NMeA]I[NMeA][Aze][NMePhe(4-CF3)][Sar][hPhe(3-Cl-4-CF3)]P)) | 0.0012 |
| CC[C@H](C)[C@@H]1NC(=O)[C@H](C)N(C)C(=O)C[C@@H](C)NC(=O)[C@H](C2CCCC2)N(C)C(=O)C2(CCCC2)NC(=O)[C@@H]2CCCN2C(=O)[C@H](CCc2ccc(C(F)(F)F)c(Cl)c2)NC(=O)CN(C)C(=O)[C@H](Cc2ccc(C)cc2)N(C)C(=O)[C@@H]2CCN2C(=O)[C@H](C)N(C)C1=O [Compound 1514] (cyclo([Ac5c][NMeGly(cPent)][d(β3hA)][NMeA]I[NMeA][Aze][NMePhe(4-Me)][Sar][hPhe(3-Cl-4-CF3)]P)) | 0.001 |
| CC[C@H](C)[C@@H]1NC(=O)[C@H](CC(C)C)N(C)C(=O)C[C@@H](C)NC(=O)[C@H](CC(C)C)N(C)C(=O)C(C)(C)NC(=O)[C@H](COCC(C)(C)O)N(C)C(=O)[C@H](CCc2ccc(C(F)(F)F)c(Cl)c2)NC(=O)CN(CC)C(=O)[C@H](COCCC(C)C)N(C)C(=O)CN(C)C(=O)CN(C)C1=O [Compound 1516] (cyclo([Aib][NMeL][d(β3hA)][NMeL]I[Sar][Sar][NMeS](Isopentyl)[NEtG][hPhe(3-Cl-4-CF3)][NMeS](CH2CMe2OH))) | 0.34 |
| CC[C@H](C)[C@@H]1NC(=O)[C@H](C)N(C)C(=O)C[C@@H](C)NC(=O)[C@H](C2CCCC2)N(C)C(=O)C2(CCCC2)NC(=O)[C@@H]2CCCN2C(=O)[C@H](CCc2ccc(C(F)(F)F)c(Cl)c2)NC(=O)[C@H]2CCCN2C(=O)[C@H](Cc2ccc(C)cc2)N(C)C(=O)CN(C)C(=O)CN(C)C1=O [Compound 1525] (cyclo([Ac5c][NMeGly(cPent)][d(β3hA)][NMeA]I[Sar][Sar][NMePhe(4-Me)][dP][hPhe(3-Cl-4-CF3)]P)) | 0.1 |
| CC[C@H](C)[C@@H]1NC(=O)[C@H](CC(C)C)N(C)C(=O)C[C@@H](C)NC(=O)[C@H](C2CCCC2)N(C)C(=O)C2(CCCC2)NC(=O)[C@@H]2CCCN2C(=O)[C@H](CCc2ccc(C(F)(F)F)c(Cl)c2)NC(=O)[C@@H](C)N(C)C(=O)[C@H](CC2CCCCC2)N(C)C(=O)[C@@H]2CCN2C(=O)CN(C)C1=O [Compound 1531] (cyclo([Ac5c][NMeGly(cPent)][d(β3hA)][NMeL]I[Sar][Aze][NMeCha][dNMeA][hPhe(3-Cl-4-CF3)]P)) | 0.23 |
| CC[C@H](C)[C@@H]1NC(=O)[C@H](CC(C)C)N(C)C(=O)C[C@@H](COCC(=O)NC(C)(C)C)NC(=O)[C@H](CC(C)C)N(C)C(=O)C(C)(C)NC(=O)[C@H](CC(C)C)N(C)C(=O)[C@H](CCc2ccc(C(F)(F)F)cc2)NC(=O)CN(C)C(=O)[C@H](COCCC(C)C)N(C)C(=O)CN(C)C(=O)CN(C)C1=O [Compound 1538] ([NMeL]I[Sar][Sar][NMeS](Isopentyl)[Sar][hPhe(4-CF3)][NMeL][Aib][NMeL]; linker N-C via X37) | 0.11 |
| CCCC[C@H]1C(=O)N2CC[C@H]2C(=O)N(C)[C@@H](CC2CCCCC2)C(=O)N(C)CC(=O)N[C@@H](CCc2ccc(C(F)(F)F)c(Cl)c2)C(=O)N2CCC[C@H]2C(=O)NC2(CCCC2)C(=O)N(C)[C@@H](C(C)C)C(=O)N[C@H](C)CC(=O)N(C)[C@@H](CC(C)C)C(=O)N[C@@H]([C@@H](C)CC)C(=O)N1C [Compound 1548] (cyclo([Ac5c][NMeV][d(β3hA)][NMeL]I[NMeNle][Aze][NMeCha][Sar][hPhe(3-Cl-4-CF3)]P)) | 0.14 |
